The values that follow come from patent publication US9957325B2, “Synthetic antibody mimic peptides” (Formurex, Inc., priority 2015, dated 2018).

Common to all, as to experiment: Flow cytometry of FITC labeled HER2 mimics
The test system of one experiment is HEK293 cells. It counts as cell-based, human. The settings on record: HEK 293, 10 μM, 15 minutes. As for the experimental part: (§1) Flow cytometric studies were carried out to quantify the fluorescence intensity of cells after being incubated with FITC labeled mimics. MDA-MB-361, ZR-75-1 and HEK293 cells were seeded in 6-well culture plates at a density of 3×10^5 cells per well for 24 hours and then incubated with FITC labeled mimics at a concentration of 10 μM in HBSS at 37° C. for 15 minutes. After washing with HBSS twice, cells remaining on the plates were trypsinized with Trpsin-EDTA and centrifuged at 1500 rpm for 5 min. Supernatant was removed and cell pellets were resuspended in 1 ml of HBSS. The suspension was transferred to a FACS Calibur™ flow cytometer and cell fluorescence was measured with high dynamic range photomultipliers with a 530 nm filter. Quantitative changes of fluorescence in different cells samples were assessed by mean fluorescence intensity (MFI), and FACS data were analyzed using BD CellQuest™ Pro software. Paired t-tests were used to determine statistical significance using the GraphPad Prism 5® Software. P-values less than or equal to 0.05 were considered to be statistically significant.

In the next experiment the test system is MDA-MB-361 cells. It counts as cell-based. The note with it: MDA-MB-361, 10 μM, 15 minutes. As for the experimental part: as §1
The subject of another experiment is ZR-75-1 cells. It counts as cell-based. The settings on record: ZR-75-1, 10 μM, 15 minutes. As for the experimental part:
as §1

Where no end group is shown, it is not given here.

Regarding “FITC-HER2-PEP22: FITC labeled control peptide HER2-PEP22 (TSPQGYPNDAGFLGRESTN; not fully specified (N-terminus); also: FITC labeled)”, the results for the MFI with HEK293 cells, in the experiment with MDA-MB-361 cells and in the experiment with ZR-75-1 cells were 14.7±1.7, 22.1±0.5 and 19.6±3.2, respectively.
